For this test, the target named is T1, DrOTOP1 G130W/A388W (Danio rerio, UniProt Q7ZWK8, A388W/G130W).
T1 construct: A previously generated codon-optimized full-length DrOTOP1[8]; (UniProt: Q7ZWK8) construct; expressed in transfected cells; host or cells: HEK-293 (CRL-1573, ATCC)
T1 sequence (Q7ZWK8 1-586 G130W/A388W): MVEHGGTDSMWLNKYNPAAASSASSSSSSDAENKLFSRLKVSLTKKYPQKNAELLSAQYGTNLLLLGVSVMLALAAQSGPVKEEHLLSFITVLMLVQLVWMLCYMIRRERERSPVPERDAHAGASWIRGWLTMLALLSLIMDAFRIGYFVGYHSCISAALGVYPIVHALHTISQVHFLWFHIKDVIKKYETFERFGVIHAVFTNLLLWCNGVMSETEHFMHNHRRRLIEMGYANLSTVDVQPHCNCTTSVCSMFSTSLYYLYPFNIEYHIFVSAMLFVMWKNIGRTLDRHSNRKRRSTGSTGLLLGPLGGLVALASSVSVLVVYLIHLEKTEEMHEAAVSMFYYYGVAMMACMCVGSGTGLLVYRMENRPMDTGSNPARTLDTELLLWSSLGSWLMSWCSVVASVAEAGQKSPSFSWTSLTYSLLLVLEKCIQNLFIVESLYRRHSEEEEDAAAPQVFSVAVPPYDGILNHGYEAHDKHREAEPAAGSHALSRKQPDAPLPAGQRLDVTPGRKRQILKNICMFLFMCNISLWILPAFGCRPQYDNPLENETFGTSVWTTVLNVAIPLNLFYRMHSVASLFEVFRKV
Briefly: Whole-cell patch-clamp, inhibition of acid-evoked currents, DrOTOP1 G130W/A388W. Format: cell-based, zebrafish (Danio rerio). Here is the method:
Given our limited success in identifying mutations of the central site that disrupt antagonism by C2.2, we tested whether mutations of the central site in a background of G130W (the most impactful outer site mutation) might unmask contributions of this site. Thus, we generated and tested double mutants of G130W with E384A, A274W, and A388W. […] We also measured the dose-dependence of inhibition by C2.2 for both G130W/A388W and G130W/E384A (Fig. 5I, J). […] G130W was tested in parallel to confirm that 100 and 300 μM C2.2 produced dose-dependent inhibition.
HEK-293 cells (CRL-1573, ATCC) were cultured in DMEM (Thermofisher 11995073) containing 10% fetal bovine serum (Life Technology 16000044) and Penicillin-Streptomycin (100 I.U./mL) and (100 µg/mL), respectively. Cells were transfected with WT DrOTOP1 or mutant DrOTOP1 channels in 35 mm petri dishes, with ~ 500 ng DNA and 2 μL TransIT-LT1 transfection reagent (Mirus Bio Corporation, Cat # MIR2300) following the manufacturer’s protocol. All constructs were subcloned into a pcDNA3.1 vector that adds an N-terminal fusion tag consisting of an octahistidine tag followed by eGFP, a Gly-Thr-Gly-Thr linker and a 3C protease cleavage site ([…]) followed by WT DrOTOP1, WT mOTOP1, WT hOTOP1, or mutated DrOTOP1. Point mutations were generated via In-Fusion Cloning (Takara) using single-stranded DNA primers generated through IDT and sequence confirmed by Sanger sequencing (GeneWiz).
Whole-cell patch-clamp recording was performed as previously described[6],[22],[25]. Recordings were made with an Axopatch 200B amplifier, digitized with a Digidata 1322a 16-bit data acquisition system, acquired with pClamp 8.2 and analyzed with Clampfit 10 (Molecular Devices). Recordings were sampled at 5 kHz and filtered at 1 kHz. Patch Pipettes with resistance of […] were fabricated from borosilicate glass, and only recordings with a giga-Ohm seal were used in analysis. Membrane potential was held at −80 mV for the duration of recordings. At the beginning of recordings and between, cells were washed with Tyrode’s solution (see below). Once a giga-Ohm seal was reached, cells were lifted and placed in front of microcapillary tubes controlled by a Fast-Step perfusion system (Warner Instruments) so that extracellular solutions could be rapidly exchanged during each experiment.
Standard Tyrode’s solution consisted of 145 mM NaCl, 5 mM KCl, MgCl2, 2 mM CaCl2, 20 mM D-Glucose, and 10 mM HEPES (for pH 7.4). All other extracellular patch-clamp solutions contained 160 mM NMDG-Cl, 2 mM CaCl2, and the following buffers: 10 mM HEPES (for pH 7.4), 10 mM MES (for pH 6.5-5.5), 10 mM CHES for pH 10, and 10 mM HomoPIPES for (pH 5.0). pH adjusted with HCl. When adding compounds to extracellular solutions, the concentration of DMSO in solution was never higher than 0.3%. The pipette contained intracellular solution made up of 120 mM Cs-aspartate, 15 mM CsCl, 2 mM Mg-ATP, 5 mM EGTA, 2.4 mM CaCl2 (100 nM free Ca^2+), and 10 mM HEPES with a pH of 7.3. All extracellular solution osmolarity was adjusted to 300 mOsm and intracellular osmolarity was adjusted to 290 mOsm.
All data are presented as mean ± SEM unless otherwise noted, and each data point represents an independent replicant. Inhibition of compounds was quantified as ((I2peak-I1)/(I2peak))*100, where I1 is the current immediately before wash-off and I2peak is the maximum recovered current (Supplementary Fig. 2). Hill coefficients were determined by the following equation: Y = Bmax*X^h/(Kd^h + X^h). Absolute IC50 was determined by the following equation: Fifty = (Top + Baseline)/2 Y = Bottom + (Top-Bottom)/(1 + ((Top-Bottom)/(Fifty-Bottom) − 1)*(AbsoluteIC50/X)^HillSlope). pH50 curves (Fig. 6G inset) were determined using the following equation: Y = Bottom + (Top-Bottom)/(1 + (EC/X)^HillSlope) where EC = EC50 control. Graphs with electrophysiological data were made in Graphpad Prism 10 (Graphpad Software Inc). […]
In general terms: The patch-clamp technique gives a direct electrical read-out from membranes.

[1] abbreviates: 100 µM, DrOTOP1 G130W/A388W, single cells.

Data on two compounds can be found in paper PMC12549899 (Nature Communications, 2025).

Where “and” joins values, the source holds several entries; their conditions need not be identical. Identical values can stand only once. Like-named read-outs stand apart in the source and are kept apart here.

In the case of `C=C(C)COc1ccccc1NC(=O)c1nc[nH]c1C` [C2.2], the Inhibition of currents runs as follows: (10 µM, DrOTOP1 G130W/A388W, single cells or mean, mean) 1.543%; (10 µM, DrOTOP1 G130W/A388W, single cells or mean, single cells) 2.216% and 2.459% and 1.638% and 1.737% and 0.722% and 0.4878%. Further, the HillSlope was determined as 1.10 (DrOTOP1 G130W/A388W) and 1.1 (G130W/A388W, best-fit value). For the same compound, the “Reduction in sensitivity (IC50) compared with single mutant G130W” value (DrOTOP1 G130W/A388W) was 3 fold and ~ 3 fold. Besides, the IC50 by setting is: (DrOTOP1 G130W/A388W, pH 5.5, read-out: IC50) 397 µM; (G130W/A388W, best-fit value, Top = 100, Bottom = 0, read-out: AbsoluteIC50) 397 µM. This compound showed a LogAbsoluteIC50 (G130W/A388W, best-fit value) of 2.599.

One may read the inhibition as the drop in the measured response relative to a control, in per cent. Read a high inhibition as a strong effect. For the compound `O=C(/C(=N\O)c1ccccc1)c1ccccc1` [C11, benzil monoxime], under setting [1], the Inhibition of currents was 63.5701% and 65.9051% and 61.9048% and 72.4545% and 68.6192%; testing at 100 µM gave an inhibition of 63.1%.
